According to US20120016119A1, “NOVEL PYRROLO(2,3-d)PYRIMIDINE COMPOUND” (priority 2009, published 2012):

Tested on: C57BL/6N male mice
Assay: Inhibitory effect on increased blood glucose after oral glucose load in fasted mice
Type: in vivo
Details: 3 mg/kg orally, one hour before glucose load (3 g/kg, p.o.), C57BL/6N male mice fasted 21 hours
Method: C57BL/6N male mice was fasted for 21 hours, and then a stratified randomization allocation was carried out by EXSUS Ver7.6 NP (Arm Systex Co., Ltd.) based on body weights (n=8). Vehicle (solvent: 0.1% Tween 80/0.5% hydroxypropyl methylcellulose) (control group) or a suspended solution of a test compound in the vehicle (test compound group) was orally administered to the mice, and a glucose load (3 g/kg, p.o.) was carried out one hour after administration of a test compound. Blood samplings from the test mice were carried out at each time point of just before administration of drug (−60 min), immediately before glucose load (0 min), 30 minutes (30 min), 60 minutes (60 min) and 120 minutes (120 min) after glucose load. Blood glucose levels at each time point were measured by glucose CII-Test Wako (manufactured by Wako Pure Chemical Industries, Ltd.), AUC (0-120 min) was calculated in each administration group on the basis of the measured value, and evaluated by time-dependent variance analysis and Student's t-Test using EXSUS Ver7.6NP (Arm Systex Co., Ltd.).
An inhibitory effect on increased blood glucose of each test compound (A ratio value of AUC (0-120 min) of the test compound group in case that AUC (0-120 min) of the control group is 100) is shown in the following Table 36.

SMILES	Inhibitory Effect on Increased Blood Glucose (ratio value of AUC (0-120 min) of test compound group, control group = 100)
CC(C)c1nc(N2CCC(n3cc(F)c4c(Nc5ccc(C(=O)N(C)CCO)cc5F)ncnc43)CC2)no1 [Example Compound 115]	92
CC(C)c1cnc(N2CCC(n3cc(F)c4c(Nc5ccc(C(=O)N(C)CCO)cc5F)ncnc43)CC2)nc1 [Example Compound 124]	86
CN(CCO)C(=O)c1ccc(Nc2ncnc3c2c(F)cn3C2CCN(c3ncc(Cl)cn3)CC2)c(F)c1 [Example Compound 134]	82
CC(C)Oc1cnc(N2CCC(n3cc(F)c4c(Nc5ccc(C(=O)N(C)CCCO)cc5F)ncnc43)CC2)nc1 [Example Compound 154]	86

Same assay, conditions: 10 mg/kg orally, one hour before glucose load (3 g/kg, p.o.), C57BL/6N male mice fasted 21 hours

SMILES	Inhibitory Effect on Increased Blood Glucose (ratio value of AUC (0-120 min) of test compound group, control group = 100)
CCc1cnc(N2CCC(n3cc(F)c4c(Nc5ccc(C(=O)N(C)C)cc5F)ncnc43)CC2)nc1 [Example Compound 6, 4-[7-[1-(5-ethylpyrimidin-2-yl)piperidin-4-yl]-5-fluoro-7H-pyrrolo[2,3-d]pyrimidin-4-ylamino]-3-fluoro-N,N-dimethylbenzamide]	85

Target: T1, human GPR119 (Homo sapiens, UniProt Q8TDV5)
T1 construct: expressed in transfected cells; host or cells: CHO cells (LM-3 mock cells carrying luciferase reporter pLG3-CRE6-CRE-VIP); resulting line L8-18
T1 sequence (Q8TDV5 1-335): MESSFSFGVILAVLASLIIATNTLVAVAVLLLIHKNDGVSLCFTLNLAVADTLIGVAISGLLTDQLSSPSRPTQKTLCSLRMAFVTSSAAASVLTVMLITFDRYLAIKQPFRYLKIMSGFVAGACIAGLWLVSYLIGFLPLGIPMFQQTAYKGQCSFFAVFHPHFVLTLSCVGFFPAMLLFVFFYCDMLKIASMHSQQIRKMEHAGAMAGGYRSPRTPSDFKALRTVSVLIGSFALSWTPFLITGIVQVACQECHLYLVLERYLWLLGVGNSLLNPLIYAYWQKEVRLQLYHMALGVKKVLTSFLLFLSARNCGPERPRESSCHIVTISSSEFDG
Assay: GPR119 agonistic activity: cAMP production in human GPR119-expressed CHO cells (HTRF cAMP kit)
Type: cell-based
Details: human GPR119-expressed CHO cells (L8-18), 37° C. for 30 minutes, 500 μM IBMX
Method: The present experiment is directed to evaluate GPR119 agonistic activity (in vitro) of test compounds by adding the compounds to human GPR119-expressed CHO cells to determine cAMP production of the cells.
Human GPR119-expressed CHO cells (L8-18) were prepared by introducing an expression vector pMSF1-GPR119 (Geneticin-resistance) carrying human GPR119 genes into CHO cells (LM-3; Mock cells) wherein lusiferase expression vector pLG3-CRE6-CRE-VIP (Hygromycin B-resistance) were introduced according to the known method (The Journal of Biological Chemistry Vol. 274 (34), pp. 23940-23947).
Cryopreserved L8-18 cells were melted, and then suspended into 9-fold amounts of assay buffer and centrifuged (1000 rpm, 5 minutes) at room temperature. The supernatant was removed, and then the precipitated cells were resuspended into assay buffer (4 mL). Thereto was added assay buffer which contained IBMX (manufactured by Sigma, #17018-1G), and 7.5×10^4 cells/mL of cell suspension was prepared. The cell suspension was let stand at room temperature for 15 minutes, and then to each well of 96 half well white plate (manufactured by Corning Incorporated, #3693) were added the cell suspension (20 μL) and a solution of a test compound or AR231453 (5 μL; a total of 25 (final concentration: 1500 cells/well, 500 μM IBMX, 1% dimethylsulfoxide). The mixture was incubated at 37° C. for 30 minutes, and then to each well were added a 20-fold diluted solution (each 12.5 μL/well) of cAMP-d2 and Anti cAMP-Cryptate of HTRF cAMP kit (manufactured by Cisbio, #62AM4PEC). The mixture was stirred, and then was let stand for 1 hour under light shielding. A fluorescence intensity was measured by time-resolved fluorescence mode (Ex: 320 nm, Em: 665 nm, 620 nm) of Microplate Reader (ARVO or SpectraMax M5e). In ARVO, Ratios [Ratio=(665 nm/620 nm)×10^4)] of cAMP-d2 to Anti cAMP-Cryptate were calculated from the resulting fluorescence intensity, and cAMP concentrations of each well were calculated from cAMP standard curve prepared by the Ratios and GraphPad Prism. In SpectraMax M5e, cAMP concentrations of each well were calculated on the basis of a standard curve prepared by the resulting fluorescence intensity and Softmax Pro.
EC50 of test compounds were calculated by GraphPad Prism.

SMILES	EC50 [nM]
CN(C)C(=O)c1ccc(Nc2ncnc3c2c(F)cn3C2CCN(C(=O)OC(C)(C)C)CC2)c(Cl)c1 [Example Compound 17]	< 1000
CC(C)(C)OC(=O)N1CCC(n2cc(F)c3c(Oc4ccc(S(C)(=O)=O)cc4F)ncnc32)CC1 [Example Compound 3, tert-butyl 4-[5-fluoro-4-(2-fluoro-4-mesylphenoxy)pyrrolo[2,3-d]pyrimidin-7-yl]piperidine-1-carboxylate]	< 1000
CC(C)OC(=O)N1CCC(n2cc(Cl)c3c(Nc4ncc(C(=O)N(C)C)cc4Cl)ncnc32)CC1 [Example Compound 2, isopropyl 4-[5-chloro-4-(3-chloro-5-dimethylcarbamoylpyridin-2-ylamino)pyrrolo[2,3-d]pyrimidin-7-yl]piperidine-1-carboxylate]	1000 to 3000
CC(C)(C)OC(=O)N1CCC(n2cc(F)c3c(Nc4ccc(S(C)(=O)=O)cc4Cl)ncnc32)CC1 [Example Compound 13]	< 1000

Further lines, results first:

EC50 [nM]	SMILES
< 1000	CN(C)C(=O)c1ccc(Nc2ncnc3c2c(F)cn3C2CCN(C(=O)OC(C)(C)C)CC2)c(F)c1 [Example Compound 1, tert-butyl 4-[4-(4-dimethylcarbamoyl-2-fluorophenylamino)-5-fluoropyrrolo[2,3-d]pyrimidin-7-yl]piperidine-1-carboxylate]
< 1000	CN(CCCO)C(=O)c1ccc(Nc2ncnc3c2c(F)cn3C2CCN(c3ncc(C4CC4)cn3)CC2)c(F)c1 [Example Compound 138]
< 1000	CN(C)C(=O)c1ccc(Nc2ncnc3c2c(F)cn3C2CCN(c3ncc(C(F)(F)F)cn3)CC2)c(F)c1 [Example Compound 54]
< 1000	CC(C)(C)OC(=O)N1CCC(n2cc(F)c3c(Nc4ccc(-n5cncn5)cc4F)ncnc32)CC1 [Example Compound 15]
< 1000	CCc1cnc(N2CCC(n3cc(F)c4c(Nc5ccc(S(C)(=O)=O)cc5F)ncnc43)CC2)nc1 [Example Compound 77]
< 1000	CC(C)c1noc(N2CCC(n3cc(F)c4c(Nc5ccc(C(=O)N(C)C)cc5Cl)ncnc43)CC2)n1 [Example Compound 21]
< 1000	CN(CCO)C(=O)c1ccc(Nc2ncnc3c2c(F)cn3C2CCN(c3ncc(OC(F)F)cn3)CC2)c(F)c1 [Example Compound 193]
< 1000	CN(CCCO)C(=O)c1ccc(Nc2ncnc3c2c(F)cn3C2CCN(c3noc(C(F)(F)F)n3)CC2)c(F)c1 [Example Compound 184]
< 1000	CC(C)Oc1cnc(N2CCC(n3cc(F)c4c(Nc5ccc(C(=O)N(C)C)cc5F)ncnc43)CC2)nc1 [Example Compound 56]
< 1000	CCc1cnc(N2CCC(n3cc(F)c4c(Nc5cc(F)c(C(=O)N(C)CCO)cc5F)ncnc43)CC2)nc1 [Example Compound 164]
